Assays:
SGLT-2 = target: T1, SGLT-2 (Homo sapiens, UniProt P31639); test: [14C]-AMG absorption in stable SGLT2 expressing Flp-in CHO cells (SGLT-2 activity screening assay); format: cell-based; settings: 14C-AMG uptake, 37° C. 1 h, 1% DMSO
T1 sequence (P31639 1-672): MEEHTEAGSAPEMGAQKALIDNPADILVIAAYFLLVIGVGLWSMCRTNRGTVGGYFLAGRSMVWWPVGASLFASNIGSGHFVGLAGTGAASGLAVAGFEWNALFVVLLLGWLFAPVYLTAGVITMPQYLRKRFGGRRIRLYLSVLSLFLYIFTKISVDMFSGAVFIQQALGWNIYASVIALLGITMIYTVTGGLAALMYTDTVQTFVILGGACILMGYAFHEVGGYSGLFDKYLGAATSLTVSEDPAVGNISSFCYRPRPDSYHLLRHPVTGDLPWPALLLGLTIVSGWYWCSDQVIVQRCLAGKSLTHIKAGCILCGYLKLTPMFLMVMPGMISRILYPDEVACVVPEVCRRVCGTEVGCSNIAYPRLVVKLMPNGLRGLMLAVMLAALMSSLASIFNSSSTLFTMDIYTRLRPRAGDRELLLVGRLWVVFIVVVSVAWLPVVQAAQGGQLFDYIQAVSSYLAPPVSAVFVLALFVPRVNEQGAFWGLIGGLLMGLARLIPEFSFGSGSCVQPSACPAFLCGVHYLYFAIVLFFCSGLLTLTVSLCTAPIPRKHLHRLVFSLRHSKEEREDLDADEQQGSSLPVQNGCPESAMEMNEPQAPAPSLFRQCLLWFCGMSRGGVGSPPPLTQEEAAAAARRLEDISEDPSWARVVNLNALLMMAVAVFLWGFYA
Excerpt: (§1) Example 1: [^14C]-AMG Absorption in Stable SGLT1 and SGLT2 Expressing Flp-in CHO Cells (SGLT-1 and SGLT-2 Activity Screening Assay)
(§2) SGLT-1 and SGLT-2 cDNA clones were purchased from OriGene. After sequencing verification, the expression vectors were constructed based on pcDNA5/FRT using conventional molecular biology method. The expression vector was transfected into Flp-in CHO cells using Lipofectamin 2000. The transfected cells were subject hygromycin selection. The single clones of cells were selected by serial dilutions 4-5 weeks after transfection. The expression of SGLT-1 ? SGLT-2 were confirmed by RT-PCR and functional assay and cell line with strong signal was selected for subsequent study.
(§3) Culture of stable SGLT-1 and SGLT-2 expressing Flp-in CHO cell line: the culture media contain F12 medium (Invitrogen), 500 μg/ml hygromycin (Calbiochem) and 10% FBS (Invitrogen). Upon 80% confluency, the cells in the T75 flask were washed three times with PBS (Invitrogen), and 5 mL of Trpsin-EDTA solution (Invitrogen) was then added. The flask was gently rotated so that all the cells were submerged in the digestion solution. After the cells detach, 10 mL of culture medium was added and single cell suspension was prepared by pipetting up and down. The cell concentration was adjusted to 3×10^5/mL, 100 μL/well was added onto clear bottom 96-well plate (Corning).
(§4) The cells were ready for absorption assay once they attached after overnight culture. 12 h after cell plating, the cells were washed once with 150 μL/well absorption solution KRH-NMG (120 mM NMG, 4.7 mM KCl, 1.2 mM MgCl2, 2.2 mM CaCl2, 10 mM HEPES, pH 7.4 1 mM Tris). The solution was then removed from the well. 2.5 μCi/mL ^14C labeled AMG (PerkinElmer) Buffer KRH-Na+ (120 mM NaCl, 4.7 mM KCl, 1.2 mM MgCl2, 2.2 mM CaCl2, 10 mM HEPES, pH 7.4 1 mM Tris) was added at […] after washing with Buffer KRH-Na+ and KRH-NMG. The corresponding compound I was immediately added at 5 μL/well, ensuring the concentration of Dimethyl Sulfoxide was 1% (v/v). The plate was subsequently incubated at 37° C. for 1 h, after which 150 μL of ice cold wash buffer (120 mM NaCl, 4.7 mM KCl, 1.2 mM MgCl2, 2.2 mM CaCl2, 10 mM HEPES, 0.5 mM phlorizin, pH 7.4 1 mM Tris) was immediately added to terminate the reaction. Each well was washed three times with wash buffer and finally the solution was removed. Caution was taken to avoid cell detachment during the procedure. 20 μL/well of Lysis Buffer (0.1 mM NaOH) was added, the plate was vortexed at 900 rpm for 5 min. 80 μL/well of scintillation solution Microsint40 was added, and vortexed at 900 rpm for 5 min. The radioactivity was assayed using MicroBeta Trilux (PerkinElmer). The data was analyzed and IC50 of the compounds was calculated using XL-fit software.

C57/BL6 mice = test: Urinary glucose excretion test in C57/BL6 mice; format: in vivo; settings: male C57/BL6 mice, 10 mg/Kg oral; for Glucose (excreted urine glucose): then 5 g/Kg glucose, total urine in 24 h, mean of 6 mice
Method: Example 2: Urinary Glucose Excretion Test in C57/BL6 Mice
Adult male C57/BL6 mice with body weight over 20 g (Shanghai LSK Laboratory Animal Ltd) were orally dosed with test compound I (10 mg/Kg) after which the animals were fed with 5 g/Kg glucose. The animals were housed in metabolic cages to collect total urine in 24 h. The cage was washed with 5 mL of normal saline. Water and food were provided to the mice ad libitum during the 24 h period. The urine samples were immediately frozen after collection, and the glucose levels were then determined. The total amount of excreted urine glucose was calculated based on total amount of urine, and then converted to amount of excreted glucose (mg) per 200 mg body weight in 24 h based on mouse body weight. The result is shown in Table 2 (mean values of 6 mice).

SGLT-1 = target: T2, SGLT-1 (Homo sapiens, UniProt P13866); test: [14C]-AMG absorption in stable SGLT1 expressing Flp-in CHO cells (SGLT-1 activity screening assay); format: cell-based; settings: 14C-AMG uptake, 37° C. 1 h, 1% DMSO
T2 sequence (P13866 1-664): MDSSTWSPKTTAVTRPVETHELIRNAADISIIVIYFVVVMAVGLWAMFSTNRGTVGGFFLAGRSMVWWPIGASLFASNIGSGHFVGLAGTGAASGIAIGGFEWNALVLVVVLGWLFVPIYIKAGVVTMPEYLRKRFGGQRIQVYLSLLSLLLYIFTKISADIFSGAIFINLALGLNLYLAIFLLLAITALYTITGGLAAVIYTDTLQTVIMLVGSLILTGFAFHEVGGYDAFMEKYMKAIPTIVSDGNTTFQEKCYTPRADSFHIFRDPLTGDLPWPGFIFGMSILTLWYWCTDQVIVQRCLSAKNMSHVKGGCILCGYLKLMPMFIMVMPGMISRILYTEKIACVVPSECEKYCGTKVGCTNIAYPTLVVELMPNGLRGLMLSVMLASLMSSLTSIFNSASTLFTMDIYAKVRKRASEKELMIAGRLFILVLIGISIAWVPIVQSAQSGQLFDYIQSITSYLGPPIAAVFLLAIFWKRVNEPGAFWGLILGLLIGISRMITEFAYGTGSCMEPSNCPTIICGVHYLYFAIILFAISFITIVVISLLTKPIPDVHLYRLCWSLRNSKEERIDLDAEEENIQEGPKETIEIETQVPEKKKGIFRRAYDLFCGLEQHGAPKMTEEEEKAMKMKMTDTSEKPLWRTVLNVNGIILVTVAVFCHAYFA
Excerpt: as §1, §2, §3, §4

Row | SMILES | IC50 (SGLT-2) [µM] | IC50 (SGLT-1) [µM] | Glucose (excreted urine glucose) (C57/BL6 mice) | activity in urinary glucose excretion compared with compound A (Empagliflozin) (C57/BL6 mice; 24 h urine, statement on Table 2)
1 | OC[C@H]1O[C@@H](c2ccc(Cl)c(Cc3ccc(O[C@H]4CCOC4)cc3)c2)[C@H](O)[C@@H](O)[C@@H]1O [A, Empagliflozin, reference compound] | 0.0066 |  | 1536.5 mg/200 mg body weight/24 h | 
2 | OC[C@H]1O[C@@H](c2cccc(Cc3ccc(OCC4Cc5ccccc5O4)cc3)c2)[C@H](O)[C@@H](O)[C@@H]1O (stereo partly drawn) [Compound I-30, (2S,3R,4R,5S,6R)-2-(3-(4-((2,3-dihydrobenzofuran-2-yl)methoxy)benzyl)phenyl)-6-(hydroxymethyl)tetrahydro-2H-pyran-3,4,5-triol] | 0.125 | 9.37 |  | 
3 | OC[C@H]1O[C@@H](c2ccc(Cl)c(Cc3ccc(OCC4Cc5c(F)cccc5O4)cc3)c2)[C@H](O)[C@@H](O)[C@@H]1O (stereo partly drawn) [Compound I-31, (2S,3R,4R,5S,6R)-2-(4-chloro-3-(4-((4-fluoro-2,3-dihydrobenzofuran-2-yl)methoxy)benzyl)phenyl)-6-(hydroxymethyl)tetrahydro-2H-pyran-3,4,5-triol] | 0.0065 | 0.365 |  | 
4 | OC[C@H]1O[C@@H](c2ccc(Cl)c(Cc3ccc(OCC4Cc5cc(F)ccc5O4)cc3)c2)[C@H](O)[C@@H](O)[C@@H]1O (stereo partly drawn) [Compound I-32, (2S,3R,4R,5S,6R)-2-(4-chloro-3-(4-((5-fluoro-2,3-dihydrobenzofuran-2-yl)methoxy)benzyl)phenyl)-6-(hydroxymethyl)tetrahydro-2H-pyran-3,4,5-triol] | 0.0067 | 0.472 |  | 
5 | Cc1ccc([C@@H]2O[C@H](CO)[C@@H](O)[C@H](O)[C@H]2O)cc1Cc1ccc(OCC2OCc3ccccc32)cc1 (stereo partly drawn) [Compound I-43, (2S,3R,4R,5S,6R)-2-(3-(4-((1,3-dihydroisobenzofuran-1-yl)methoxy)benzyl)-4-methylphenyl)-6-(hydroxymethyl)tetrahydro-2H-pyran-3,4,5-triol] | 0.0017 | 0.322 |  | 
6 | Cc1ccc([C@@H]2O[C@H](CO)[C@@H](O)[C@H](O)[C@H]2O)cc1Cc1ccc(OCC2(C)OCc3ccccc32)cc1 (stereo partly drawn) [Compound I-112, (2S,3R,4R,5S,6R)-2-(3-(4-((1-methyl-1,3-dihydroisobenzofuran-1-yl)methoxy)benzyl)-4-methylphenyl)-6-(hydroxymethyl)tetrahydro-2H-pyran-3,4,5-triol] | 0.008 | 0.179 |  | 

Further lines, with some results ahead:

Row | IC50 (SGLT-2) [µM] | IC50 (SGLT-1) [µM] | SMILES | Glucose (excreted urine glucose) (C57/BL6 mice) | activity in urinary glucose excretion compared with compound A (Empagliflozin) (C57/BL6 mice; 24 h urine, statement on Table 2)
7 | 0.007 |  | OC[C@H]1O[C@@H](c2ccc(Cl)c(Cc3ccc(OCc4cc5ccccc5o4)cc3)c2)[C@H](O)[C@@H](O)[C@@H]1O [Compound I-1, (2S,3R,4R,5S,6R)-2-(3-(4-(benzofuran-2-ylmethoxy)benzyl)-4-chlorophenyl)-6-(hydroxymethyl)tetrahydro-2H-pyran-3,4,5-triol] | 1646.9 mg/200 mg body weight/24 h | significantly more active than compound A
8 | 0.0062 | 0.599 | OC[C@H]1O[C@@H](c2ccc(Cl)c(Cc3ccc(OCC4Cc5ccc(F)cc5O4)cc3)c2)[C@H](O)[C@@H](O)[C@@H]1O (stereo partly drawn) [Compound I-33, (2S,3R,4R,5S,6R)-2-(4-chloro-3-(4-((6-fluoro-2,3-dihydrobenzofuran-2-yl)methoxy)benzyl)phenyl)-6-(hydroxymethyl)tetrahydro-2H-pyran-3,4,5-triol] |  | 
9 | 0.0045 | 0.141 | OC[C@H]1O[C@@H](c2ccc(Cl)c(Cc3ccc(OCC4Cc5cccc(F)c5O4)cc3)c2)[C@H](O)[C@@H](O)[C@@H]1O (stereo partly drawn) [Compound I-34, (2S,3R,4R,5S,6R)-2-(4-chloro-3-(4-((7-fluoro-2,3-dihydrobenzofuran-2-yl)methoxy)benzyl)phenyl)-6-(hydroxymethyl)tetrahydro-2H-pyran-3,4,5-triol] |  | 
10 | 0.002 | 0.615 | OC[C@H]1O[C@@H](c2ccc(Cl)c(Cc3ccc(OC[C@H]4OCc5ccccc54)cc3)c2)[C@H](O)[C@@H](O)[C@@H]1O [Compound I-37, (2S,3R,4R,5S,6R)-2-(4-chloro-3-(4-(((S)-1,3-dihydroisobenzofuran-1-yl)methoxy)benzyl)phenyl)-6-(hydroxymethyl)tetrahydro-2H-pyran-3,4,5-triol] |  | 
11 | 0.001 | 0.608 | OC[C@H]1O[C@@H](c2ccc(Cl)c(Cc3ccc(OC[C@@H]4OCc5ccccc54)cc3)c2)[C@H](O)[C@@H](O)[C@@H]1O [Compound I-38, (2S,3R,4R,5S,6R)-2-(4-chloro-3-(4-(((R)-1,3-dihydroisobenzofuran-1-yl)methoxy)benzyl)phenyl)-6-(hydroxymethyl)tetrahydro-2H-pyran-3,4,5-triol] |  | 
12 | 0.0102 | 1.81 | CC1(COc2ccc(Cc3cc([C@@H]4O[C@H](CO)[C@@H](O)[C@H](O)[C@H]4O)ccc3Cl)cc2)OCc2ccccc21 (stereo partly drawn) [Compound I-108, (2S,3R,4R,5S,6R)-2-(4-chloro-3-(4-((1-methyl-1,3-dihydroisobenzofuran-1-yl)methoxy)benzyl)phenyl)-6-(hydroxymethyl)tetrahydro-2H-pyran-3,4,5-triol] |  | 
